Data from patent publication US8633206B2, “Pyrrolo[2,3-D]pyrimidine compounds” (Pfizer Inc., priority 2009, dated 2014).

Tests used:
Format in all cases: biochemical
[1] = target: JAK1 (Homo sapiens (Human), UniProt P23458); assay: JAK enzymatic assay (peptide mobility shift), JAK1; settings: recombinant JAK1 20 nM, IRS-1 peptide, 240 minutes
[2] = target: JAK2 (Homo sapiens (Human), UniProt O60674); assay: JAK enzymatic assay (peptide mobility shift), JAK2; settings: recombinant JAK2 2 nM, JAKtide peptide, 150 minutes
Chain of JAK2 (O60674 808-1132): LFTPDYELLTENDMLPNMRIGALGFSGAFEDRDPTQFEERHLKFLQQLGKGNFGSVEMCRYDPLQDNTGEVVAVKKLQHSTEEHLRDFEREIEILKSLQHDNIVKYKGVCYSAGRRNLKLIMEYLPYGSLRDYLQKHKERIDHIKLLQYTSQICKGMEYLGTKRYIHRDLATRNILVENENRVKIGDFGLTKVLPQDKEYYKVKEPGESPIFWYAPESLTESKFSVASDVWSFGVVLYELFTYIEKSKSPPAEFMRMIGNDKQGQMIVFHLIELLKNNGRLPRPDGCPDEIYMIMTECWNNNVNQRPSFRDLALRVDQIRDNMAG

[3] = target: JAK3 (Homo sapiens (Human), UniProt P52333); assay: JAK enzymatic assay (peptide mobility shift), JAK3; settings: recombinant JAK3 1 nM, JAKtide peptide, 90 minutes
Chain of JAK3 (P52333 781-1124): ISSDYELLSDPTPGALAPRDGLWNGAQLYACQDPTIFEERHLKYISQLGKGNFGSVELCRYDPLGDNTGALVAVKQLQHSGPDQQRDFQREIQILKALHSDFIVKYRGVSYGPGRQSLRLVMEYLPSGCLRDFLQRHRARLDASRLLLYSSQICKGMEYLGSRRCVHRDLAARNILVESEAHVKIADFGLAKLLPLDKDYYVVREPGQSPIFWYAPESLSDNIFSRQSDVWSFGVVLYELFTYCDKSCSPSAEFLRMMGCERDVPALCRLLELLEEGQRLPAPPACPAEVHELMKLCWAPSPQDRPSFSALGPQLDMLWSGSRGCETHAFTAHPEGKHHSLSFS

Chain of JAK1 (P23458 whole entry): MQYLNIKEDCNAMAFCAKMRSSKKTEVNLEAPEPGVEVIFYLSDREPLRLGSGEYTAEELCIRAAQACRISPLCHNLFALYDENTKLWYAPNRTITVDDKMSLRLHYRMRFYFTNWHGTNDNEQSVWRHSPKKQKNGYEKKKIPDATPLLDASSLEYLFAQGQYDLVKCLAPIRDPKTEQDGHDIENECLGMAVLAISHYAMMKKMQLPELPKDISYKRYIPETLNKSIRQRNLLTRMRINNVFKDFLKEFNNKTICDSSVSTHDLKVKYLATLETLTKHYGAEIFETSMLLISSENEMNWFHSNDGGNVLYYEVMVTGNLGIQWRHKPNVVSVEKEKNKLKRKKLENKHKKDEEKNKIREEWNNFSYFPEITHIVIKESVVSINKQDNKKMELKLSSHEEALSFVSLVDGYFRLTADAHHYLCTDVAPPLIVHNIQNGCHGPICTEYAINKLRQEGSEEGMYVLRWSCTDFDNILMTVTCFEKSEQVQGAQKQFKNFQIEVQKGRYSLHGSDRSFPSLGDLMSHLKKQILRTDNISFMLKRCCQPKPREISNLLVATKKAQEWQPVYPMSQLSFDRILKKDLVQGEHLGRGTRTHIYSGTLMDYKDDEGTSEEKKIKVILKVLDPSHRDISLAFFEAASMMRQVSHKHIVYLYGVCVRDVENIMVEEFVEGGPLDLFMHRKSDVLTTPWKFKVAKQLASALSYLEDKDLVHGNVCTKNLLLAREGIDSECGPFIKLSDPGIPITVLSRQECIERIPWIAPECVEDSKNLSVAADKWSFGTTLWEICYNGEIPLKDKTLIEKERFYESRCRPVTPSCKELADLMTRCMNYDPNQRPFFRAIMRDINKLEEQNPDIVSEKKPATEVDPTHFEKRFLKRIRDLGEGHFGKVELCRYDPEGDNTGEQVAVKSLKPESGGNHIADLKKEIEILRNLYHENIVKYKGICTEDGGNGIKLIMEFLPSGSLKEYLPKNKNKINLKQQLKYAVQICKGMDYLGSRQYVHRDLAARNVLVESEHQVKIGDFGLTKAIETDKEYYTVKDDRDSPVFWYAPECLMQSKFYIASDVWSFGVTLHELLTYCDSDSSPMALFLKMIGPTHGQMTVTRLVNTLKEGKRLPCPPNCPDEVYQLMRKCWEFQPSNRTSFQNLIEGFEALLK

IC50 [1] [nM]	IC50 [2] [nM]	IC50 [3] [nM]	SMILES
3.05	9.2	63	CN(c1ncnc2[nH]ccc12)[C@H]1CC[C@H](CS(=O)(=O)N2CC(S(=O)(=O)c3ccccc3)C2)CC1 [Example 114, N-methyl-N-[trans-4-({[3-(phenylsulfonyl)azetidin-l-yl]sulfonyl}methyl)cyclo-hexyl]-7H-pyrrolo[2,3-d]-pyrimidin-4-amine]
22.1	107	634	COC1CCN(S(=O)(=O)C[C@H]2CC[C@H](N(C)c3ncnc4[nH]ccc34)CC2)CC1 [Example 41, N-(trans-4-{[(4-methoxy-piperidin-1-yl)-sulfonyl]-methyl}cyclohexyl)-N-methyl-7H-pyrrolo[2,3-d]-pyrimidin-4-amine]
20.6	92.2	573	CN(c1ncnc2[nH]ccc12)[C@H]1CC[C@H](CS(=O)(=O)N2CCC[C@H](CS(C)(=O)=O)C2)CC1 [Example 67, N-methyl-N-{trans-4-[({3-[(methylsulfonyl)methyl]-piperidin-1-yl}sulfonyl)-methyl]cyclohexyl}-7H-pyrrolo[2,3-d]pyrimidin-4-amine]
7.7	50.8	453	CN(C)S(=O)(=O)C[C@H]1CCCN(S(=O)(=O)C[C@H]2CC[C@H](N(C)c3ncnc4[nH]ccc34)CC2)C1 [Example 57, N,N-dimethyl-1-{1-[({trans-4-[methyl(7H-pyrrolo[2,3-d]pyrimidin-4-yl)amino]-cyclohexyl}methyl)sulfonyl]piperidin-3-yl}-methanesulfonamide]
10.4	32.2	275	CN(c1ncnc2[nH]ccc12)[C@H]1CC[C@H](CS(=O)(=O)N2C[C@H](CO)[C@H](S(C)(=O)=O)C2)CC1 [Example 33, [(3R,4S)-1-[({trans-4-[methyl(7H-pyrrolo[2,3-d]pyrimidin-4-yl)amino]-cyclohexyl}methyl)sulfonyl]-4-(methylsulfonyl)-pyrrolidin-3-yl]methanol]
5.22	15	151	CN(c1ncnc2[nH]ccc12)[C@H]1CC[C@H](CS(=O)(=O)N2C[C@@H](O)[C@H](c3ccccc3)C2)CC1 [Example 29, (3S,4R)-1-[({trans-4-[methyl(7H-pyrrolo[2,3-d]pyrimidin-4-yl)amino]-cyclohexyl}methyl)sulfonyl]-4-phenylpyrrolidin-3-ol]
2.71	32.1	263	CN(c1ncnc2[nH]ccc12)[C@H]1CC[C@H](CS(=O)(=O)N2CCC[C@H](C#N)C2)CC1 [Example 64, 1-[({trans-4-[methyl(7H-pyrrolo[2,3-d]pyrimidin-4-yl)amino]cyclohexyl}-methyl)sulfonyl]piperidine-3-carbonitrile]
6.89	40.7	414	CN(c1ncnc2[nH]ccc12)[C@H]1CC[C@H](CS(=O)(=O)N2CC[C@@H](c3ccccc3)C2)CC1 [Example 100, N-methyl-N-(trans-4-{[(3-phenylpyrrolidin-1-yl)sulfonyl]methyl}cyclo-hexyl)-7H-pyrrolo[2,3-d]pyrimidin-4-amine]
7.74	42.1	243	CN(c1ncnc2[nH]ccc12)[C@H]1CC[C@H](CS(=O)(=O)N2CCC(C)(O)CC2)CC1 [Example 23, 4-methyl-1-[({trans-4-[methyl(7H-pyrrolo[2,3-d]pyrimidin-4-yl)amino]-cyclohexyl}methyl)sulfonyl]-piperidin-4-ol]
11.9	41.8	468	CO[C@@H]1CCN(S(=O)(=O)C[C@H]2CC[C@H](N(C)c3ncnc4[nH]ccc34)CC2)C1 [Example 68, N-[trans-4-({[(3R)-3-methoxypyrrolidin-1-yl]sulfonyl}methyl)cyclo-hexyl]-N-methyl-7H-pyrrolo[2,3-d]pyrimidin-4-amine]
23.4	75.4	393	CN(c1ncnc2[nH]ccc12)[C@H]1CC[C@@H](CS(=O)(=O)N2CCC[C@H](C#N)C2)CC1 [Example 39, 1-[({cis-4-[methyl(7H-pyrrolo[2,3-d]pyrimidin-4-yl)amino]cyclohexyl}-methyl)sulfonyl]piperidine-3-carbonitrile]
3.76	27.3	355	CN(c1ncnc2[nH]ccc12)[C@H]1CC[C@H](CS(=O)(=O)N2CC[C@H](CC#N)C2)CC1 [Example 32, {(3R)-1-[({trans-4-[methyl(7H-pyrrolo[2,3-d]pyrimidin-4-yl)amino]-cyclohexyl}methyl)sulfonyl]-pyrrolidin-3-yl}-acetonitrile]
11.5	32.5	138	CN(c1ncnc2[nH]ccc12)[C@H]1CC[C@H](CS(=O)(=O)N2CC[C@H](O)[C@H](O)C2)CC1 [Example 22, (3R,4S)-1-[({trans-4-[methyl(7H-pyrrolo[2,3-d]pyrimidin-4-yl)amino]-cyclohexyl}methyl)sulfonyl]-piperidine-3,4-diol]
2.96	18.3	173	CN(c1ncnc2[nH]ccc12)[C@H]1CC[C@H](CS(=O)(=O)N2CCCC(OCC(N)=O)C2)CC1 (stereo partly drawn) [Example 7, 2-({1-[({trans-4-[methyl-(7H-pyrrolo[2,3-d]-pyrimidin-4-yl)amino]-cyclohexyl}methyl)sulfonyl]-piperidin-3-yl}oxy)-acetamide]
11.1	52.6	447	CN(c1ncnc2[nH]ccc12)[C@H]1CC[C@H](CS(=O)(=O)N2CC[C@@H](CC#N)C2)CC1 [Example 35, {(3S)-1-[({trans-4-[methyl(7H-pyrrolo[2,3-d]pyrimidin-4-yl)amino]cyclohexyl}methyl)-sulfonyl]pyrrolidin-3-yl}acetonitrile]
14.3	39.4	289	CN(c1ncnc2[nH]ccc12)[C@H]1CC[C@H](CS(=O)(=O)N2CCC2)CC1 [Example 109, N-{trans-4-[(azetidin-1-ylsulfonyl)methyl]cyclo-hexyl}-N-methyl-7H-pyrrolo[2,3-d]pyrimidin-4-amine]
22	44.9	377	CNC(=O)C1CCN(S(=O)(=O)C[C@H]2CC[C@H](N(C)c3ncnc4[nH]ccc34)CC2)CC1 [Example 54, N-methyl-1-[({trans-4-[methyl(7H-pyrrolo[2,3-d]-pyrimidin-4-yl)amino]-cyclohexyl}methyl)sulfonyl] piperidine-4-carboxamide]
4.28	11.8	119	CN(c1ncnc2[nH]ccc12)[C@H]1CC[C@H](CS(=O)(=O)N2CC[C@@H](O)[C@H](O)C2)CC1 [Example 12, (3R,4R)-1-[({trans-4-[methyl(7H-pyrrolo[2,3-d]pyrimidin-4-yl)amino]-cyclohexyl}methyl)sulfonyl]-piperidine-3,4-diol]
1.59	8.97	39.6	COCCC1(C(N)=O)CCN(S(=O)(=O)C[C@H]2CC[C@H](N(C)c3ncnc4[nH]ccc34)CC2)CC1 [Example 45, 4-(2-methoxyethyl)-1-[({trans-4-[methyl(7H-pyrrolo[2,3-d]pyrimidin-4-yl)amino]cyclohexyl}-methyl)sulfonyl]piperidine-4-carboxamide]
2.54	6.22	36.3	CN(c1ncnc2[nH]ccc12)[C@H]1CC[C@H](CS(=O)(=O)N2CC[C@H](c3ccccn3)C2)CC1 [Example 107, N-methyl-N-(trans-4-{[(3-pyridin-2-ylpyrrolidin-1-yl)sulfonyl]methyl}cyclo-hexyl)-7H-pyrrolo[2,3-d]pyrimidin-4-amine]
5.03	7.42	37.4	CN(c1ncnc2[nH]ccc12)[C@H]1CC[C@H](CS(=O)(=O)N2CCC(O)(c3ccccc3)CC2)CC1 [Example 24, 1-[({trans-4-[methyl(7H-pyrrolo[2,3-d]pyrimidin-4-yl)amino]cyclohexyl}methyl)-sulfonyl]-4-phenyl-piperidin-4-ol]
22.6	115	1240	CCN(CC)C(=O)C1CCN(S(=O)(=O)C[C@H]2CC[C@H](N(C)c3ncnc4[nH]ccc34)CC2)CC1 [Example 52, N,N-diethyl-1-[({trans-4-[methyl(7H-pyrrolo[2,3-d]-pyrimidin-4-yl)amino]-cyclohexyl}methyl)sulfonyl] piperidine-4-carboxamide]
13.5	68.4	397	CN(c1ncnc2[nH]ccc12)[C@H]1CC[C@H](CS(=O)(=O)N2CCC(C(C)(C)O)CC2)CC1 [Example 47, 2-{1-[({trans-4-[methyl(7H-pyrrolo[2,3-d]pyrimidin-4-yl)amino]cyclohexyl}methyl)-sulfonyl]piperidin-4-yl}propan-2-ol]
3.12	26.2	132	CN(c1ncnc2[nH]ccc12)[C@H]1CC[C@H](CS(=O)(=O)N2CC[C@@](O)(COc3cccc(F)c3)C2)CC1 [Example 84, 3-[(3-fluorophenoxy)-methyl]-1-[({trans-4-[methyl(7H-pyrrolo[2,3-d]-pyrimidin-4-yl)amino]-cyclohexyl}methyl)sulfonyl] pyrrolidin-3-ol]
6.73	23.4	413	CN(c1ncnc2[nH]ccc12)[C@H]1CC[C@H](CS(=O)(=O)N2CC[C@H](Oc3ccccc3C#N)C2)CC1 [Example 88, 2-({(3S)-1-[({trans-4-[methyl(7H-pyrrolo[2,3-d]-pyrimidin-4-yl)amino]-cyclohexyl}methyl)sulfonyl]pyrrolidin-3-yl}oxy)-benzonitrile]
4.07	59.8	170	CN(c1ncnc2[nH]ccc12)[C@H]1CC[C@H](CS(=O)(=O)N2CCC(COCC3CC3)CC2)CC1 [Example 56, N-{trans-4-[({4-[(cyclopropyl-methoxy)-methyl]piperidin-1-yl}-sulfonyl)-methyl]-cyclohexyl}-N-methyl-7H-pyrrolo[2,3-d]-pyrimidin-4-amine]
